Measured values reported in patent US9371336B2, “Compounds for treating spinal muscular atrophy” (PTC Therapeutics Inc., priority 2012, dated 2016).

What was measured:
[1] = tested on: SMN2 minigene mRNA (SMN2-A minigene construct); experiment: SMN2 minigene mRNA splicing RT-qPCR assay in cultured cells; type: cell-based, human; conditions: Homo sapiens, HEK293-H; HEK293H cells stably transfected with SMN2-A minigene, 24 hours, 7-point concentration data; concentration giving 1.5-fold SMN2 full length mRNA relative to vehicle-treated cells; read-out: EC1.5x for production of full length SMN2 mRNA
Procedure: The reverse transcription-quantitative PCR-based (RT-qPCR) assay is used to quantify the level of the full length SMN2 minigene mRNA containing SMN2 exon 7 in a HEK293H cell line stably transfected with said minigene and treated with a test compound.
HEK293H cells stably transfected with the SMN2-A minigene construct described above (10,000 cells/well) are seeded in 200 μL of cell culture medium (DMEM plus 10% FBS, with 200 μg/mL hygromycin) in 96-well flat-bottom plates and the plate is immediately swirled to ensure proper dispersal of cells, forming an even monolayer of cells. Cells are allowed to attach for at least 4-6 hours. Test compounds are serially diluted 3.16-fold in 100% DMSO to generate a 7-point concentration curve. A solution of test compound (1 μL, 200× in DMSO) is added to each cell-containing well and the plate is incubated for 24 hours in a cell culture incubator (37° C., 5% CO2, 100% relative humidity). Two replicates are prepared for each test compound concentration. The cells are then lysed in Cells-To-Ct lysis buffer and the lysate is stored at −80° C.
Primer SMN Forward A (SEQ ID NO. 1) hybridizes to a nucleotide sequence in exon 7 (nucleotide 22 to nucleotide 40), primer SMN Reverse A (SEQ ID NO. 2) hybridizes to a nucleotide sequence in the coding sequence of Firefly luciferase, SMN Probe A (SEQ ID NO. 3) hybridizes to a nucleotide sequence in exon 7 (nucleotide 50 to nucleotide 54) and exon 8 (nucleotide 1 to nucleotide 21). The combination of these three oligonucleotides detects only SMN1 or SMN2 minigenes (RT-qPCR) and will not detect endogenous SMN1 or SMN2 genes.
The SMN forward and reverse primers are used at final concentrations of 0.4 μM. The SMN probe is used at a final concentration of 0.15 μM. The GAPDH primers are used at final concentrations of 0.2 μM and the probe at 0.15 μM.
The SMN2-minigene GAPDH mix (15 μL total volume) is prepared by combining 7.5 μL of 2×RT-PCR buffer, 0.4 μL of 25×RT-PCR enzyme mix, 0.75 μL of 20×GAPDH primer-probe mix, 4.0075 μL of water, 2 μL of 10-fold diluted cell lysate, 0.06 μL of 100 μM SMN forward primer, 0.06 μL of 100 μM SMN reverse primer, and 0.225 μL of 100 μM SMN probe.
PCR is carried out at the following temperatures for the indicated time: Step 1: 48° C. (15 min); Step 2: 95° C. (10 min); Step 3: 95° C. (15 sec); Step 4: 60° C. (1 min); then repeat Steps 3 and 4 for a total of 40 cycles.
Each reaction mixture contains both SMN2-A minigene and GAPDH primers/probe sets (multiplex design), allowing simultaneous measurement of the levels of two transcripts.
Two SMN spliced products are generated from the SMN2 minigene. The first spliced product containing exon 7, corresponding to SMN2 full length mRNA, is referred to herein using the term “SMN2 minigene FL.” The second spliced product lacking exon 7 is referred to herein using the term “SMN2 minigene Δ7.”
The increase of SMN2 minigene FL mRNA relative to that in cells treated with vehicle control is determined from real-time PCR data using a modified ΔΔCt method (as described in Livak and Schmittgen, Methods, 2001, 25:402-8). The amplification efficiency (E) is calculated from the slope of the amplification curve for SMN2 minigene FL and GAPDH individually. The abundances of SMN2 minigene FL and GAPDH are then calculated as (1+E)^−Ct, where Ct is the threshold value for each amplicon. The abundance of SMN2 minigene FL is normalized to GAPDH abundance. The normalized SMN2 minigene FL abundance from test compound-treated samples is then divided by normalized SMN2 minigene FL abundance from vehicle-treated cells to determine the level of SMN2 FL mRNA relative to vehicle control.

Smn protein = Smn protein assay (HTRF) in cultured cells (SMA patient fibroblasts GM03813); type: cell-based, human; conditions: 48 hours; for maximum fold (Fold) increase of Smn protein: SMA patient fibroblast cells, 7-point concentration curve, relative to vehicle control; for EC1.5x for Smn protein expression: SMA patient fibroblast cells (GM03813), HTRF, 7-point concentration data, concentration producing 1.5 times Smn protein vs DMSO vehicle control
Procedure: The Smn HTRF (homogeneous time resolved fluorescence) assay is used to quantify the level of Smn protein in SMA patient fibroblast cells treated with test compounds.
Cells are thawed and cultured in DMEM-10% FBS for 72 hours. Cells are trypsinized, counted and re-suspended to a concentration of 25,000 cells/mL in DMEM-10% FBS. The cell suspension is plated at 5,000 cells per well in a 96 well microtiter plate and incubated for 3 to 5 hours. […] Test compounds are serially diluted 3.16-fold in 100% DMSO to generate a 7-point concentration curve. 1 μL of test compound solution is transferred to cell-containing wells and cells are incubated for 48 hours in a cell culture incubator (37° C., 5% CO2, 100% relative humidity). Triplicate samples are set up for each test compound concentration. After 48 hours, the supernatant is removed from the wells and 25 μL of the RIPA lysis buffer, containing protease inhibitors, is added to the wells and incubated with shaking at room temperature for 1 hour. 25 μL of the diluent is added and then 35 μL of the resulting lysate is transferred to a 384-well plate, where each well contains 5 μL of the antibody solution (1:100 dilution of anti-SMN d2 and anti-SMN kryptate in SMN reconstitution buffer). The plate is centrifuged for 1 minute to bring the solution to the bottom of the wells, then incubated overnight at room temperature. Fluorescence for each well of the plate at 665 nm and 620 nm is measured on an EnVision multilabel plate reader (Perkin-Elmer).
The normalized fluorescence signal is calculated for each sample, Blank and vehicle control well by dividing the signal at 665 nm by the signal at 620 nm. Normalizing the signal accounts for possible fluorescence quenching due to the matrix effect of the lysate. The ΔF value (a measurement of Smn protein abundance as a percent value) for each sample well is calculated by subtracting the normalized average fluorescence for the Blank control wells from the normalized fluorescence for each sample well, then dividing this difference by the normalized average fluorescence for the Blank control wells and multiplying the resulting value by 100. The ΔF value for each sample well represents the Smn protein abundance from test compound-treated samples. The ΔF value for each sample well is divided by the ΔF value for the vehicle control wells to calculate the fold increase in Smn protein abundance relative to the vehicle control.

SMILES | EC (1.5-fold) [1] [µM] | melting point [°C] | maximum fold (Fold) increase of Smn protein (Smn protein) | EC1.5x for Smn protein expression (Smn protein)
CCN1CCN(c2ccc3cc(-c4nc5ccccc5s4)c(=O)oc3n2)CC1 [Cpd 17, 3-(1,3-benzothiazol-2-yl)-7-(4-ethylpiperazin-1-yl)-2H-pyrano[2,3-b]pyridin-2-one] | 0.3 to 1 | 254 to 257 | *** (a fold increase between >1.35 and ≦1.5 is indicated by three stars (***)) | 
O=c1oc2nc(N3CCN(CCO)CC3)ccc2cc1-c1nc2ccccc2s1 [Cpd 25, 3-(1,3-benzothiazol-2-yl)-7-[4-(2-hydroxyethyl)piperazin-1-yl]-2H-pyrano[2,3-b]pyridin-2-one] | 0.3 to 1 | 220 to 224 | *** (a fold increase between >1.35 and ≦1.5 is indicated by three stars (***)) | 
C[C@H]1CN(c2ccc3cc(-c4cn5cccc(F)c5n4)c(=O)oc3n2)CCN1 [Cpd 64, 3-(8-fluoroimidazo[1,2-a]pyridin-2-yl)-7-[(3S)-3-methylpiperazin-1-yl]-2H-pyrano[2,3-b]pyridin-2-one] | ≤ 0.1 |  | **** (a fold increase between >1.5 and ≦1.65 is indicated by four stars (****)) | **** (an EC1.5×≦0.3 μM is indicated by four stars (****))
Cl.O=c1oc2nc(N3CCNCC3)ccc2cc1-c1cn2ccsc2n1 [Cpd 44, 3-(imidazo[2,1-b][1,3]thiazol-6-yl)-7-(piperazin-1-yl)-2H-pyrano[2,3-b]pyridin-2-one hydrochloride] | ≤ 0.1 |  | *** (a fold increase between >1.35 and ≦1.5 is indicated by three stars (***)) | ** (an EC1.5× between >1 and ≦3 μM is indicated by two stars (**))
Cc1ccc2nc(-c3cc4ccc(N5CCN[C@@H](C)C5)nc4oc3=O)cn2c1 [Cpd 72, 3-(6-methylimidazo[1,2-a]pyridin-2-yl)-7-[(3S)-3-methylpiperazin-1-yl]-2H-pyrano[2,3-b]pyridin-2-one] | ≤ 0.1 |  | **** (a fold increase between >1.5 and ≦1.65 is indicated by four stars (****)) | **** (an EC1.5×≦0.3 μM is indicated by four stars (****))
Cc1cn2cc(-c3cc4ccc(N5C[C@@H]6C[C@H]5CN6)nc4oc3=O)nc2c(C)n1 [Cpd 135] | ≤ 0.1 |  | ***** (a fold increase >1.65 is indicated by five stars (*****)) | *** (an EC1.5× between >0.3 μM and ≦1 μM is indicated by three stars (***))
Cc1ccn2cc(-c3cc4ccc(N5CCN[C@@H](C)C5)nc4oc3=O)nc2c1 [Cpd 58, 3-(7-methylimidazo[1,2-a]pyridin-2-yl)-7-[(3S)-3-methylpiperazin-1-yl]-2H-pyrano[2,3-b]pyridin-2-one] | ≤ 0.1 |  | **** (a fold increase between >1.5 and ≦1.65 is indicated by four stars (****)) | **** (an EC1.5×≦0.3 μM is indicated by four stars (****))
Cc1ccn2cc(-c3cc4ccc(N5CCNC[C@@H]5C)nc4oc3=O)nc2c1 [Cpd 59, 3-(7-methylimidazo[1,2-a]pyridin-2-yl)-7-[(2S)-2-methylpiperazin-1-yl]-2H-pyrano[2,3-b]pyridin-2-one] | ≤ 0.1 |  | **** (a fold increase between >1.5 and ≦1.65 is indicated by four stars (****)) | **** (an EC1.5×≦0.3 μM is indicated by four stars (****))
C[C@@H]1CN(c2ccc3cc(-c4cn5ccsc5n4)c(=O)oc3n2)CCN1.Cl [Cpd 84, 3-(imidazo[2,1-b][1,3]thiazol-6-yl)-7-[(3R)-3-methylpiperazin-1-yl]-2H-pyrano[2,3-b]pyridin-2-one hydrochloride] | ≤ 0.1 |  | ***** (a fold increase >1.65 is indicated by five stars (*****)) | **** (an EC1.5×≦0.3 μM is indicated by four stars (****))
CC(C)(C)OC(=O)N1CCN(c2cc3oc(=O)c(-c4nc5ccccc5s4)cc3cn2)CC1 [Cpd 7, tert-butyl 4-[3-(1,3-benzothiazol-2-yl)-2-oxo-2H-pyrano[3,2-c]pyridin-7-yl]piperazine-1-carboxylate] | 3 to 30 |  | * (A maximum fold increase ≦1.2 is indicated by one star (*)) | 
CC(C)(C)OC(=O)N1CCN(c2cc3oc(=O)c(-c4nc5c(Cl)cccc5s4)cc3cn2)CC1 [Cpd 8, tert-butyl 4-[3-(4-chloro-1,3-benzothiazol-2-yl)-2-oxo-2H-pyrano[3,2-c]pyridin-7-yl]piperazine-1-carboxylate] | 3 to 30 |  | ***** (a fold increase >1.65 is indicated by five stars (*****)) | * (An EC1.5× for Smn protein expression between >3 μM and ≦10 μM is indicated by one star (*))
C[C@H]1CN(c2ccc3cc(-c4cn5ccccc5n4)c(=O)oc3n2)CCN1.Cl [Cpd 79, 3-(imidazo[1,2-a]pyridin-2-yl)-7-[(3S)-3-methylpiperazin-1-yl]-2H-pyrano[2,3-b]pyridin-2-one hydrochloride] | ≤ 0.1 |  | ***** (a fold increase >1.65 is indicated by five stars (*****)) | **** (an EC1.5×≦0.3 μM is indicated by four stars (****))
